From patent US10787413B2, “Derivatives of curcuminoids and use thereof as an anticancer agent” (CHINA MEDICAL UNIVERSITY, priority 2016, dated 2020)
Where two headings read alike, the source gives them in different places.

What was measured:
[1] = system: HCT-116 colon cancer cell; assay: MTT cell viability assay, HCT-116 colon cancer cell; type: cell-based
Experimental: (§1) Cell viability was evaluated by measuring the reduction in MTT to yield blue formazan. Cells were cultured in 96-well plates, allowed to attach overnight, and then treated with compounds. After treatment, MTT solution (1 mg/ml) was added to each well, and plates were incubated for another 4 h. Medium were removed, blue formazan was dissolved in DMSO, and the absorbance was read at 570 nm^20.

[2] = system: MDA-MB-231 breast cancer cell; assay: MTT cell viability assay, MDA-MB-231 breast cancer cell; type: cell-based, human
Experimental: Cell viability was evaluated by measuring the reduction in MTT to yield blue formazan. Cells were cultured in 96-well plates, allowed to attach overnight, and then treated with compounds. After treatment, MTT solution (1 mg/ml) was added to each well, and plates were incubated for another 4 h.

[3] = system: PC3 prostate cancer cell; assay: MTT cell viability assay, PC3 prostate cancer cell; type: cell-based
Experimental: as §1

[4] = HCT-116, treated 24 hours, read-out: IC50 24 hours
[5] = HCT-116, treated 48 hours, read-out: IC50 48 hours
[6] = HCT-116, treated 72 hours, read-out: IC50 72 hours
[7] = MDA-MB-231, treated 24 hours, read-out: IC50 24 hours
[8] = MDA-MB-231, treated 48 hours, read-out: IC50 48 hours
[9] = MDA-MB-231, treated 72 hours, read-out: IC50 72 hours
[10] = PC-3, treated 24 hours, read-out: IC50 24 hours
[11] = PC-3, treated 48 hours, read-out: IC50 48 hours
[12] = PC-3, treated 72 hours, read-out: IC50 72 hours
[13] = Homo sapiens, HCT-116, treated 24 hours, read-out: IC50 24 hours
[14] = Homo sapiens, HCT-116, treated 48 hours, read-out: IC50 48 hours
[15] = Homo sapiens, HCT-116, treated 72 hours, read-out: IC50 72 hours
[16] = Homo sapiens, MDA-MB-231, 24 h, MDA-MB-231, treated 24 hours, read-out: IC50 24 hours
[17] = Homo sapiens, MDA-MB-231, 48 h, MDA-MB-231, treated 48 hours, read-out: IC50 48 hours
[18] = Homo sapiens, MDA-MB-231, 72 h, MDA-MB-231, treated 72 hours, read-out: IC50 72 hours

Structure (SMILES) | IC50 [2, 9] [µM] | IC50 [3, 10] [µM] | IC50 [3, 11] [µM] | IC50 [3, 12] [µM] | IC50 [1, 13] [µM] | IC50 [1, 14] [µM] | IC50 [1, 15] [µM] | IC50 [2, 16] [µM] | IC50 [2, 17] [µM] | IC50 [2, 18] [µM] | IC50 [1, 4] [µM] | IC50 [1, 5] [µM] | IC50 [1, 6] [µM] | IC50 [2, 7] [µM] | IC50 [2, 8] [µM]
O=C(/C=C/c1ccc(O)cc1)CC(=O)/C=C/c1ccc(O)cc1 [Bisdemethoxycurcumin, bisdemethoxycurcumin, reference compound] | 27.5 ± 0.42 | > 100 | 28.5 ± 1.09 | 26.9 ± 4.36 |  |  |  |  |  |  | > 100 | 29.6 ± 0.78 | 23.7 ± 2.43 | > 100 | 26.92 ± 0.19
CCC(CO)(CO)C(=O)Oc1ccc(/C=C/C(=O)/C=C(O)/C=C/c2ccc(OC(=O)C(CC)(CO)CO)c(OC)c2)cc1OC [Compound 22a, ((1E,3Z,6E)-3-Hydroxy-1-oxohepta-1,3,6-triene-1,7-diyl)bis(2-methoxy-4,1-phenylene) bis(2,2-bis(hydroxymethyl)butanoate)] | 2 | 6.91 ± 0.67 | 5.12 ± 0.29 | 4.21 ± 0.14 |  |  |  |  |  |  | 5.82 ± 0.56 | 2.4 ± 0.32 | 1.34 ± 0.04 | 4.71 ± 0.29 | 2.56 ± 0.18
CCC(CO)(CO)C(=O)Oc1cc(/C=C/C(=O)/C=C(O)/C=C/c2ccc(OC)c(O)c2)ccc1OC [Compound 25] | 3.85 | 15.9 ± 2.23 | 8.74 ± 0.01 | 7.03 ± 0.12 |  |  |  |  |  |  | 7.62 ± 0.41 | 4.77 ± 0.1 | 3.64 ± 0.03 | 9.64 ± 0.07 | 4.94 ± 0.03
CC(CO)(CO)C(=O)Oc1ccc(/C=C/C(=O)CC(=O)/C=C/c2ccc(OC(=O)C(C)(CO)CO)c(OC(F)(F)F)c2)cc1OC(F)(F)F [Compound 28, ((1E,6E)-3,5-dioxohepta-1,6-diene-1,7-diyl)bis(2-(trifluoromethoxy)-4,1-phenylene) bis(3-hydroxy-2-(hydroxymethyl)-2-methylpropanoate)] |  | 67.1 ± 3.39 | 53.9 ± 3.01 | 30.2 ± 2.37 | 8.94 ± 0.66 | 7.11 ± 0.07 | 6.27 ± 0.1 | 16.6 ± 3.04 | 8.6 ± 0.74 | 7.78 ± 0.09 |  |  |  |  | 
CCC(CO)(CO)C(=O)Oc1ccc(/C=C/C(=O)CC(=O)/C=C/c2ccc(OC(=O)C(CC)(CO)CO)c(OC(F)(F)F)c2)cc1OC(F)(F)F [Compound 29, ((1E,6E)-3,5-dioxohepta-1,6-diene-1,7-diyl)bis(2-(trifluoromethoxy)-4,1-phenylene) bis(2,2-bis(hydroxymethyl)butanoate)] |  | 37 ± 0.56 | 29.7 ± 2.83 | 8.1 ± 1.56 | 7.43 ± 0.1 | 4.69 ± 0.49 | 4.38 ± 0.26 | 9.48 ± 0.44 | 7.79 ± 0.61 | 7.22 ± 0.41 |  |  |  |  | 
COc1cc(/C=C/C(=O)/C=C(O)/C=C/c2cc(OC)c(OC(=O)C(C)(CO)CO)c(OC)c2)cc(OC)c1OC(=O)C(C)(CO)CO [Compound 30, ((1E,3Z,6E)-3-hydroxy-5-oxohepta-1,3,6-triene-1,7-diyl)bis(2,6-dimethoxy-4,1-phenylene) bis(3-hydroxy-2-(hydroxymethyl)-2-methylpropanoate)] |  | 7.79 ± 1.42 | 7.7 ± 0.87 | 3.14 ± 0.33 | 8.34 ± 0.83 | 4.77 ± 0.44 | 5.18 ± 0.76 | 17.5 ± 2.85 | 8.9 ± 1.28 | 6.19 ± 0.04 |  |  |  |  | 
CCc1cc(/C=C/C(=O)CC(=O)/C=C/c2cc(CC)c(OC(=O)C(C)(CO)CO)c(CC)c2)cc(CC)c1OC(=O)C(C)(CO)CO [Compound 31, ((1E,6E)-3,5-dioxohepta-1,6-diene-1,7-diyl)bis(2,6-diethyl-4,1-phenylene) bis(3-hydroxy-2-(hydroxymethyl)-2-methylpropanoate)] |  | 19.9 ± 1.27 | 7.49 ± 0.18 | 4.14 ± 1.1 | 7.21 ± 0.21 | 3.67 ± 0.01 | 3.51 ± 0.01 | 8.68 ± 0.07 | 7.4 ± 0.63 | 3.82 ± 0.03 |  |  |  |  | 
COc1cc(/C=C/C(=O)C(Cc2ccccc2)(Cc2ccccc2)C(=O)/C=C/c2ccc(OC(=O)C(C)(CO)CO)c(OC)c2)ccc1OC(=O)C(C)(CO)CO [Compound 35c, ((1E,6E)-4,4-Dibenzyl-3,5-dioxohepta-1,6-dine-1,7-diyl)bis(2-methoxy-4,1-phenylene) bis(3-hydroxy-2-(hydroxymethyl)-2-methylpropanoate)] | 2.11 ± 0.04 | 17.59 ± 0.14 | 9.09 ± 0.99 | 7.28 ± 0.5 |  |  |  |  |  |  | 12.9 ± 2.03 | 7.66 ± 0.61 | 3.88 ± 0.16 | 6.03 ± 2.52 | 2.45 ± 0.24
CC(CO)(CO)C(=O)Oc1ccc(/C=C/C(=O)C(C)(C)C(=O)/C=C/c2ccc(OC(=O)C(C)(CO)CO)cc2)cc1 [Compound 36, ((1E,6E)-4,4-Dimethyl-3,5-dioxohepta-1,6-diene-1,7-diyl)bis(4,1-phenylene) bis(3-hydroxy-2-(hydroxymethyl)-2-methylpropanoate)] | 2.98 ± 0.09 | 17.1 ± 1.81 | 7.49 ± 0.33 | 3.62 ± 0.11 | 4.12 ± 0.1 | 3.43 ± 0.2 | 2.63 ± 0.06 | 7.74 ± 0.41 | 3.13 ± 0.04 | 2.89 |  |  |  |  | 
COc1ccc(/C=C/C(=O)C(C)(C)C(=O)/C=C/c2ccc(OC)c(OC(=O)C(C)(CO)CO)c2)cc1OC(=O)C(C)(CO)CO [Compound 37, ((1E,6E)-4,4-Dimethyl-3,5-dioxohepta-1,6-dien-1,7-diyl)bis(2-methoxy-5,1-phenylene) bis(3-hydroxy-2-(hydroxymethyl)-2-methylpropanoate)] |  | 2.86 ± 0.83 | 1.59 ± 0.24 | 1.84 ± 0.12 | 5.9 ± 1.87 | 2.71 ± 0.39 | 1.26 ± 0.04 | 7.6 ± 0.94 | 2.71 ± 0.23 | 2.7 |  |  |  |  | 
COc1cc(/C=C/C(=O)C(COC(C)=O)(COC(C)=O)C(=O)/C=C/c2ccc(OC(=O)C(C)(CO)CO)c(OC)c2)ccc1OC(=O)C(C)(CO)CO [Compound 41, ((1E,6E)-4,4-bis(acetoxymethyl)-3,5-dioxohepta-1,6-diene-1,7-diyl)bis(2-methoxy-4,1-phenylene) bis(3-hydroxy-2-(hydroxymethyl)-2-methylpropanoate)] |  | 65.2 ± 1.43 | 47.4 ± 2.65 | 32.8 ± 2.7 | 9.52 ± 0.06 |  | 5.4 ± 0.02 | 57.6 ± 1.59 |  | 3.69 ± 0.02 |  |  |  |  | 

More lines, main results first:

IC50 [2, 9] [µM] | IC50 [3, 10] [µM] | IC50 [3, 11] [µM] | IC50 [3, 12] [µM] | IC50 [1, 13] [µM] | IC50 [1, 14] [µM] | IC50 [1, 15] [µM] | IC50 [2, 16] [µM] | IC50 [2, 17] [µM] | IC50 [2, 18] [µM] | Structure (SMILES) | IC50 [1, 4] [µM] | IC50 [1, 5] [µM] | IC50 [1, 6] [µM] | IC50 [2, 7] [µM] | IC50 [2, 8] [µM]
 | 17.1 ± 1.74 | 11.5 ± 0.96 | 6.7 ± 0.75 | 14.5 ± 1.01 |  | 3.92 ± 0.24 | 28.5 ± 5.29 |  | 4.9 | C#CCC(CC#C)(C(=O)/C=C/c1ccc(OC(=O)C(C)(CO)CO)c(OC)c1)C(=O)/C=C/c1ccc(OC(=O)C(C)(CO)CO)c(OC)c1 [Compound 35d, ((1E,6E)-3,5-Dioxo-4,4-di(prop-2-yn-1-yl)hepta-1,6-diene-1,7-diyl)bis(2-methoxy-4,1-phenylene) bis(3-hydroxy-2-(hydroxymethyl)-2-methylpropanoate)] |  |  |  |  | 
 | 46.5 ± 0.48 | 34.9 ± 0.2 | 32.7 ± 0.56 | 39.59 ± 0.23 | 18.4 ± 0.62 | 9.86 ± 0.01 | 47.3 ± 1.31 | 21.1 ± 1.01 | 17.5 ± 1.62 | COc1cc(/C=C/C(=O)CC(=O)/C=C/c2ccc(OC(=O)C(CO)(CO)CO)c(OC)c2)ccc1O [Compound 38a, 4-((1E,6E)-7-(4-hydroxy-3-methoxyphenyl)-3,5-dioxohept-1,6-den-1-yl)-2-methoxyphenyl 3-hydroxy-2,2-bis(hydroxymethyl)propanoate] |  |  |  |  | 
 | ≥ 100 | 67.5 ± 1.25 | 63.94 ± 0.47 | 75 ± 3.1 | 61.3 ± 2.85 | 43.7 ± 1.36 | 82.6 ± 1.67 | 64.8 ± 2.39 | 55.3 ± 3.2 | COc1cc(/C=C/C(=O)CC(=O)/C=C/c2ccc(OC(=O)C(CO)(CO)COC(=O)C(CO)(CO)CO)c(OC)c2)ccc1O [Compound 38b] |  |  |  |  | 
